Source: patent US12489120B2, “Redox flow battery” (ELECTROCHEM, S.L., priority 2019, dated 2025)
Where two headings read alike, the source gives them in different places. Each block holds one molecule with its values, some of them ahead of it.

Assays:
[1] = Molar absorptivity at 480 nm in borate buffer pH 9; assay type: physicochemical; details: borate buffer pH 9, five repetitions; in M-1·cm-1 (unit assumed)
Description: The molar absorptivity was determined in borate buffer solutions at pH 9 (five repetitions). To define the exact complex concentration an understoichiometric amount of ferric iron was used and the excess of free ligand was tolerated, as the ligand is not electroactive.

[2] = Diffusion coefficients of ferric complexes from voltammetry; assay type: physicochemical; details: pH 9, borate buffer, this work
Description: The experiments also permit calculation of the diffusion coefficients (five solutions in the concentration range between 0.3 and 0.8 mM) (Table 3). Literature values for the Fe^3+ diffusion coefficient range from 3.3-6.5×10^−6 cm^2/s in acidic media to 8.6×10^−6 cm^2/s complexed as K3Fe(CN)6 in strongly basic media.

[3] = literature (Yunta et al. 2003); in M-1·cm-1 (unit assumed); cited from earlier work
[4] = Cyclic voltammetry in borate buffer at Hg/Cu/GC electrodes; details: for E1/2 / ipa/ipc / jpc (peak current density) / ΔEp: 0.5 mM, 50 mM borate buffer pH 9, 0.1M NaClO4
Description: (§1) A Pt rod served as counter electrode, potentials refer to a (Ag/AgCl, 1 M NaCl) reference electrode. For each CV experiment at the mercury electrode, nine single measurements were recorded and averaged in order to minimize errors originating from drop size fluctuations. Copper electrodes were precleaned with 6 M HNO3 before use and equilibrated in electrolyte solution by running repetitive cycles. The planar glassy carbon electrode (Metrohm, 5 mm diameter) was polished on a polishing micro cloth (Buehler) with 0.05 μM alumina (Buehler) to a mirror like finish between the measurement series.
To avoid disturbing influences of local changes in pH within the diffusion layer of the electrodes, cyclic voltammetry with use of buffered solutions was performed.
A 100 mM NaClO4 background supporting electrolyte was used to maintain diffusion limited conditions and high solution conductivity. 50 mM boric acid was added to the NaClO4 supporting electrolyte and adjusted with NaOH to the desired pH value.

[5] = Cyclic voltammetry of Fe-EDDHA complexes in unbuffered 0.1 M NaClO4
Description: In order to minimize undesired ligand exchange reactions and solely observe the effect of pH on the redox properties, 0.1 M NaClO4 was chosen as electrolyte for the first set of experiments.
as §1

[6] = cited from earlier work
[7] = 0.5 mM, unbuffered 0.1M NaClO4, pH 9, Hg electrode
[8] = 0.5 mM, unbuffered 0.1M NaClO4, pH 9, Hg electrode, vs Ag/AgCl 1 M NaCl

Molar absorptivity (ε480 nm), this work [1]: 4546 ± 120
Diffusion coefficient Do [2]: 5.78 10^−6 cm^2/s
E1/2 ([4]; Cu electrode): −619 mV
ipa/ipc ([4]; Cu electrode): 1.06
jpc (peak current density) ([4]; Cu electrode): 520 nA/mm^2
ΔEp ([4]; Cu electrode): 132 mV
E1/2 ([4]; GC electrode): −616 mV
ipa/ipc ([4]; GC electrode): 0.94 1
jpc (peak current density) ([4]; GC electrode): 817 nA/mm^2
ΔEp ([4]; GC electrode): 67 mV
E1/2 ([4]; Hg electrode): −615 mV
ipa/ipc ([4]; Hg electrode): 0.93 1
jpc (peak current density) ([4]; Hg electrode): 1167 nA/mm^2
ΔEp ([4]; Hg electrode): 64 mV
slope of E1/2 vs pH ([4]; borate buffered solution, below pH 8 (racemic) / below pH 9 (meso)): −38 mV/pH
redox potential ([4]; pH 9, vs Ag/AgCl 1 M NaCl reference electrode): −615 mV
ipa [5, 7]: 255 nA
ipa/ipc [5, 7]: 0.93
ipc [5, 7]: −275 nA
ΔEP [5, 7]: 72 mV
E1/2 [5, 8]: −621 mV
Epa [5, 8]: −585 mV
Epc [5, 8]: −657 mV
pH range in which the voltammograms were independent on pH ([5]; unbuffered 0.1 M NaClO4): 6-9
pH above which the complex hydrolyses ([5]; without buffer): > 9
Compound: O=C([O-])C(NCCNC(C(=O)[O-])c1ccccc1[O-])c1ccccc1[O-].[Fe+3] (stereo not shown) [Fe-mesoEDDHA]
Molar absorptivity (ε480 nm), lit. [3]: 4574 ± 53

Compound: [Fe+3] [Fe^3+]
Diffusion coefficient, literature values ([6]; acidic media): 3.3-6.5 ×10^−6 cm^2/s
Diffusion coefficient Do ([6]; pH 0-1, source a (literature)): 3.3-6.5 10^−6 cm^2/s
